Results reported in US9040547B2, “Pyrrolopyrimidine and purine derivatives” (PFIZER INC., priority 2011, dated 2015).

Legend:
Type in all cases: cell-based
[1] = molecular target: EGFR L858R+T790M (Homo sapiens, UniProt P00533, L858R/T790M); assay: pEGFR Y1068 ELISA assay, NIH3T3/EGFR_L858R+T790M cells; settings: 3T3 cell line, 2 hrs compound treatment; read-out: pEGFRY1068 ELISA3T3T790M—L858R IC50;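 further: sandwich ELISA of EGFR phosphorylated at Tyr1068 in lysates of stably transfected NIH/3T3 cells, 11-point threefold dilution series run in duplicate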
Chain of EGFR L858R+T790M (P00533 25-1210 T790M/L858R): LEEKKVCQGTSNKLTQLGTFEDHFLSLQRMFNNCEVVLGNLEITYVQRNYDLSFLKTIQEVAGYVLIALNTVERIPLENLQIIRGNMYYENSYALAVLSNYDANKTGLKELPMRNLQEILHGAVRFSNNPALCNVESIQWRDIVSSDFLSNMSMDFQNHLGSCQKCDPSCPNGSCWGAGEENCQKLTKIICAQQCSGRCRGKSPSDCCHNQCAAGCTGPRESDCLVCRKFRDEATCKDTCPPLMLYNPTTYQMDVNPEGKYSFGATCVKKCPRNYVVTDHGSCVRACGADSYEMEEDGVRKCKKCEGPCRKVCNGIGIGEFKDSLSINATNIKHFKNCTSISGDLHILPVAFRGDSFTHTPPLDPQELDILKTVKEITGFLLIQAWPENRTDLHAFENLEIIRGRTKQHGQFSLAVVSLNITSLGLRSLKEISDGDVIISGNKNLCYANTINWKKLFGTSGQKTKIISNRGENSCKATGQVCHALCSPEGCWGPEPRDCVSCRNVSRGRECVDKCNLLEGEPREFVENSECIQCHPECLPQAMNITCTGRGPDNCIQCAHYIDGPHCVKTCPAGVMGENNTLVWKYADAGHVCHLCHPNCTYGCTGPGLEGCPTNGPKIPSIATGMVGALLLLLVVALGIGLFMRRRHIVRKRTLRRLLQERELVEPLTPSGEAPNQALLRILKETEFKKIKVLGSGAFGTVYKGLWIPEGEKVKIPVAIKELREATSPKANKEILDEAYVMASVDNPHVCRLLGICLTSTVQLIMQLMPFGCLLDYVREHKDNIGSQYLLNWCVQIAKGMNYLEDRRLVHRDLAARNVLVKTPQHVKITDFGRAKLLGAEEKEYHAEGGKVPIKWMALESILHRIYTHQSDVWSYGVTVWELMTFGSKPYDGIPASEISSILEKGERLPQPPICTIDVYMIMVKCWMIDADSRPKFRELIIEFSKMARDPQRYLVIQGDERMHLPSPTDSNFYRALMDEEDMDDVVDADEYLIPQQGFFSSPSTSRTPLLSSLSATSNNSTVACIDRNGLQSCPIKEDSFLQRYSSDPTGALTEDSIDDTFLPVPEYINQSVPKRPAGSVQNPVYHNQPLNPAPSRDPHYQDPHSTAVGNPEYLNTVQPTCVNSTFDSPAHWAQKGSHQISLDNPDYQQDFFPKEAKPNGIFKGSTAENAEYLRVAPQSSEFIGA

[2] = molecular target: EGFR L858R (Homo sapiens, UniProt P00533, L858R); assay: pEGFR Y1068 ELISA assay, NIH3T3/EGFR_L858R cells; settings: 3T3 cell line, 2 hrs compound treatment; read-out: pEGFRY1068 ELISA3T3 L858R IC50;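 further: sandwich ELISA of phospho-EGFR Tyr1068 in lysates of stably transfected NIH/3T3 pools after 2 h compound exposure at 37 °C, 11-point threefold dilution series run in duplicate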
Chain of EGFR L858R (P00533 25-1210 L858R): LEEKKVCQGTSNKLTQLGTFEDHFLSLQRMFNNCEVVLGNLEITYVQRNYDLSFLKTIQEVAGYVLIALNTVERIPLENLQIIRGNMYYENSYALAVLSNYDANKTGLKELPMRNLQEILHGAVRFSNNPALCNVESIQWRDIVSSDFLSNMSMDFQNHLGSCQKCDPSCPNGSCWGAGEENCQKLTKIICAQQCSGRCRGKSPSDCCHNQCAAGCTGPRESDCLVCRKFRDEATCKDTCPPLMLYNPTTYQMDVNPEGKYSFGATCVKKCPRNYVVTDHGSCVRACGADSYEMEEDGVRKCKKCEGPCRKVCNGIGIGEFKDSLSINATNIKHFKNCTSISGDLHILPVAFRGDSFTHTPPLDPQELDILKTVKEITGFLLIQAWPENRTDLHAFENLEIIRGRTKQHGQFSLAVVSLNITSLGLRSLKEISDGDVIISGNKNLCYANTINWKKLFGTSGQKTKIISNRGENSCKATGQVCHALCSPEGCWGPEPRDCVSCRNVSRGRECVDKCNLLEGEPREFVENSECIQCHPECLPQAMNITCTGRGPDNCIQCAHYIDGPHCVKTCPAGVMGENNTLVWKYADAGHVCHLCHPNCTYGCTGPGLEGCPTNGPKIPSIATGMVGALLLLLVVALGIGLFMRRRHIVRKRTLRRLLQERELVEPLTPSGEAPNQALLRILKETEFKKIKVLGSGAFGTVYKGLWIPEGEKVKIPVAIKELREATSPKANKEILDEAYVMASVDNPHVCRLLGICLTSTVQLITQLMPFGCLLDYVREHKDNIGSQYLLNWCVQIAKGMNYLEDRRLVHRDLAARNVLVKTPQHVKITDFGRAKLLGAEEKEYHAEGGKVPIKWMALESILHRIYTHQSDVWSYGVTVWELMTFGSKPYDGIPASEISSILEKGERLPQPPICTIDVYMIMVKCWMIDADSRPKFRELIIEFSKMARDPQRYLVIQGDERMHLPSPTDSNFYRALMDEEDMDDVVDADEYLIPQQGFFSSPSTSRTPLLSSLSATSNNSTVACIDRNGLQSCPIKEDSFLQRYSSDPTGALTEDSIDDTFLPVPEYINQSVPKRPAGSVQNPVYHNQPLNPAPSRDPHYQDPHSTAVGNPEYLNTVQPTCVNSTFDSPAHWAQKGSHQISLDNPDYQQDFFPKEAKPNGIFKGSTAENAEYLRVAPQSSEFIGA

[3] = molecular target: T1, EGFR wildtype, endogenous (Homo sapiens, UniProt P00533); assay: pEGFR Y1068 ELISA assay, A549 cells; settings: full serum media, stimulated 10 min with EGF (40 ng/mL), read-out: pEGFRY1068 ELISAA549 IC50;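 further: sandwich ELISA of phospho-EGFR Tyr1068 in cell lysates, cells exposed to compound for 2 h before EGF stimulation, 11-point threefold dilution series run in duplicate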
T1 construct: A549 (EGFR wildtype, endogenous); host or cells: A549
T1 sequence (P00533 25-1210): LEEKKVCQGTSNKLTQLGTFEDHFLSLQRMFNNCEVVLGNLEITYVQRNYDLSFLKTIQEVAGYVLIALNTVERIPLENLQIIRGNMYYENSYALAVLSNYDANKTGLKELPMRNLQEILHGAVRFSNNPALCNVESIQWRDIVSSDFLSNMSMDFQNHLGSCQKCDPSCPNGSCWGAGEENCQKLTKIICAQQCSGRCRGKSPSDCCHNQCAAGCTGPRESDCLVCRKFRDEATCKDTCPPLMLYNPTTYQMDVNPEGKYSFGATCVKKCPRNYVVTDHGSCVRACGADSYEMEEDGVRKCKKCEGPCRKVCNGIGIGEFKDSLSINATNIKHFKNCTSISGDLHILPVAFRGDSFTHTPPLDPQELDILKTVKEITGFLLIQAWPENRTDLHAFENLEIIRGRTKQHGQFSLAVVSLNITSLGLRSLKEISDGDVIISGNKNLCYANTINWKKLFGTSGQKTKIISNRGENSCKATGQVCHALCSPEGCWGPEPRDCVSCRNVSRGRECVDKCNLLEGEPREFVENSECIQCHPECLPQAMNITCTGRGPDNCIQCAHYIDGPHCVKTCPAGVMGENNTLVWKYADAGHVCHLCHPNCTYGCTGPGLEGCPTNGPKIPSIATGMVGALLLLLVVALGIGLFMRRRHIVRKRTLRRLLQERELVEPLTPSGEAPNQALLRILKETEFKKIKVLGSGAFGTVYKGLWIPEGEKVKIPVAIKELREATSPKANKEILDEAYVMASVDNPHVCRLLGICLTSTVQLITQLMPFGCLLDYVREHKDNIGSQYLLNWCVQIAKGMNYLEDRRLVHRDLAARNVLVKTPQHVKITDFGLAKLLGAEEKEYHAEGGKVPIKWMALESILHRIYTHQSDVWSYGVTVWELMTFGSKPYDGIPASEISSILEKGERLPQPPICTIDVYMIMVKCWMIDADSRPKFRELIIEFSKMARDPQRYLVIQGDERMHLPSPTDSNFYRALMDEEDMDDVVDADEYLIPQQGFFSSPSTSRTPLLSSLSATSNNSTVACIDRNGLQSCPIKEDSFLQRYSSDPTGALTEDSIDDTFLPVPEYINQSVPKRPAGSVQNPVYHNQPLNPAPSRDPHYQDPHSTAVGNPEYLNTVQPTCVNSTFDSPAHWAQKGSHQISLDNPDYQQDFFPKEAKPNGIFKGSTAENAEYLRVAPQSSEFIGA

[4] = molecular target: EGFR E746-A750 deletion (Homo sapiens, UniProt P00533, DEL746-750); assay: pEGFR Y1068 ELISA assay, NIH3T3/EGFR_E746-A750 deletion cells; settings: 3T3 Del cells, 2 hrs compound treatment; read-out: ELISA7E 3T3 Del IC50;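 further: sandwich ELISA on cell lysates detecting phospho-EGFR at Tyr1068, compounds run as 11-point threefold dilution series in duplicate, IC50 from inhibition of this phosphorylation signal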
[5] = system: NCI-H3255; assay: Cell proliferation assay (CellTiter-Glo), NCI-H3255; settings: Homo sapiens, value marked (H3255), read-out: 3T3 L858R IC50, (H3255)
Description: (§1) Cell proliferation was measured using the CellTiter-Glo® Luminescent Cell Viability Assay. The assay involves the addition of a single reagent (CellTiter-Glo® Reagent) directly to cells cultured in serum-supplemented medium. The assay uses this one-step addition to induce cell lysis and generate a luminescent signal proportional to the amount of ATP present which is directly proportional to the number of metabolically active cells present in culture. The following cell lines were evaluated in this assay: NIH3T3/EGFR_L858R, NIH3T3/EGFR_E746-A750_deletion, NIH3T3/EGFR L858R+T790M, NIH3T3/EGFR_E746-A750_deletion+T790M, PC-9, PC9-DRH, NCI-H1975, and NCI-H3255. NIH/3T3 parental cells, NCI-H1975, and NCI-H3255 were purchased from the American Type Culture Collection (Manassas, Va.), and PC-9 cells were obtained from Japan. All cells were cultured according to recommendations. NIH/3T3 cells were grown in DMEM (Invitrogen, Carlsbad, Calif.) supplemented with 10% newborn calf serum (Invitrogen), and NIH3T3/EGFR mutant cells were grown in complete media with 5 μg/mL puromycin (Invitrogen). PC-9, NCI-H1975, and NCI-H3255 were grown in RPMI (Invitrogen, Carlsbad, Calif.) supplemented with 10% FBS (Sigma, St Louis, Mo.), and PC9-DRH cells were grown in complete media with 2 uM PF-00299804. Plasmids (pLPCX) with various EGFR constructs were made by GenScript (Piscataway, N.J.), and stable pools of NIH/3T3 cells expressing these constructs were made at Pfizer La Jolla. PC9-DRH cells were generated at Pfizer La Jolla by exposing cells to increasing concentrations of PF-00299804. Cells were plated in complete culture media (3000-5000 cells/well, 50 μl/well) on the bottom of white clear-bottom tissue culture treated microtiter plates (#3610, Corning Inc, Corning, N.Y.) and allowed to adhere overnight at 37° C., 5% CO2. The following day, compound dilution plates were prepared in 96 well clear V-bottom 0.5 mL polypropylene block plates (#3956, Corning, Inc). All cell lines were not evaluated for each compound. Each compound evaluated was prepared as a DMSO stock solution (10 mM). Compounds were tested in duplicate on each plate, with an 11-point serial dilution curve (1:3 dilution). Compound treatment (50 μl) was added from the compound dilution plate to the cell plate. The highest compound concentration was 1 or 10 μM (final), with a 0.3% final DMSO (#D-5879, Sigma, St Louis, Mo.) concentration. Plates were then incubated at 37° C., 5% CO2. After three to five days of compound treatment, CellTiter-Glo® Reagent (#G7573, Promega, Madison, Wis.) was prepared in one of two ways. If thawing a frozen aliquot of CellTiter-Glo® Reagent, the aliquot was thawed and equilibrated to room temperature prior to use while keeping it protected from light. Alternatively, new bottles of CellTiter-Glo® Buffer and CellTiter-Glo® Substrate were thawed and equilibrated to room temperature prior to use. CellTiter-Glo® Buffer (100 mL) was transferred into the amber bottle containing CellTiter-Glo® Substrate to reconstitute the lyophilized enzyme/substrate mixture, forming the CellTiter-Glo® Reagent. The reconstituted reagent was mixed by gently inverting the contents to obtain a homogeneous solution, and went into solution easily in less than one minute. Any unused reconstituted CellTiter-Glo® Reagent was immediately aliquoted and frozen at −20° C., protected from light. Cell plates were equilibrated at room temperature for approximately 30 minutes. An equivolume amount of CellTiter-Glo® Reagent (100 μL) was added to each well. Plates were mixed for two minutes on an orbital shaker to induce cell lysis, and then allowed to incubate at room temperature for 10 minutes to stabilize the luminescent signal. Luminescence was recorded using the PerkinElmer EnVision Excite Multilabel Reader used for endpoint reading for Luminescence detection (Waltham, Mass.). Data were analyzed using a four-parameter fit in Microsoft Excel. […]

[6] = system: PC-9; assay: Cell proliferation assay (CellTiter-Glo), PC-9; settings: Homo sapiens, value marked (PC9), read-out: 3T3 del IC50, (PC9)
Description: as §1

[7] = system: NCI-H1975; assay: Cell proliferation assay (CellTiter-Glo), NCI-H1975; settings: Homo sapiens, value marked (H1975), read-out: 3T3 L858R_T790M IC50, (H1975)
Description: as §1

[8] = molecular target: T2, EGFR L858R+T790M, endogenous (Homo sapiens, UniProt P00533, L858R/T790M); assay: pEGFR Y1068 ELISA assay, NCI-H1975 cells; settings: value marked (H1975): NCI-H1975 cells, 2 hrs compound treatment; read-out: pEGFRY1068 ELISA3T3T790M—L858R IC50 (nM), (H1975);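 further: sandwich ELISA of endogenous phospho-EGFR (Tyr1068) in lysates of treated cells, 11-point 1:3 serial dilution tested in duplicate per plate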
T2 construct: NCI-H1975 (EGFR L858R+T790M, endogenous); host or cells: NCI-H1975

[9] = molecular target: T3, EGFR L858R, endogenous (Homo sapiens, UniProt P00533, L858R); assay: pEGFR Y1068 ELISA assay, NCI-H3255 cells; settings: value marked (H3255): NCI-H3255 cells, 2 hrs compound treatment; read-out: pEGFRY1068 ELISA3T3 L858R IC50 (nM), (H3255)
T3 construct: NCI-H3255 (EGFR L858R, endogenous); endogenous in cells; host or cells: NCI-H3255

[10] = molecular target: T4, EGFR Del (PC9) (Homo sapiens, UniProt P00533, DEL746-750); assay: EGFR ELISA, PC9 Del cells; settings: read-out: EGFR_ELISA9E PC9 Del IC50;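 further: cellular EGFR autophosphorylation at Tyr1068 quantified by sandwich ELISA of cell lysates after 2 h compound exposure at 37 °C, 11-point threefold dilution series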
T4 construct: endogenous in cells; host or cells: PC-9
T4 sequence (P00533 with tags, fused parts or gaps DEL746-750): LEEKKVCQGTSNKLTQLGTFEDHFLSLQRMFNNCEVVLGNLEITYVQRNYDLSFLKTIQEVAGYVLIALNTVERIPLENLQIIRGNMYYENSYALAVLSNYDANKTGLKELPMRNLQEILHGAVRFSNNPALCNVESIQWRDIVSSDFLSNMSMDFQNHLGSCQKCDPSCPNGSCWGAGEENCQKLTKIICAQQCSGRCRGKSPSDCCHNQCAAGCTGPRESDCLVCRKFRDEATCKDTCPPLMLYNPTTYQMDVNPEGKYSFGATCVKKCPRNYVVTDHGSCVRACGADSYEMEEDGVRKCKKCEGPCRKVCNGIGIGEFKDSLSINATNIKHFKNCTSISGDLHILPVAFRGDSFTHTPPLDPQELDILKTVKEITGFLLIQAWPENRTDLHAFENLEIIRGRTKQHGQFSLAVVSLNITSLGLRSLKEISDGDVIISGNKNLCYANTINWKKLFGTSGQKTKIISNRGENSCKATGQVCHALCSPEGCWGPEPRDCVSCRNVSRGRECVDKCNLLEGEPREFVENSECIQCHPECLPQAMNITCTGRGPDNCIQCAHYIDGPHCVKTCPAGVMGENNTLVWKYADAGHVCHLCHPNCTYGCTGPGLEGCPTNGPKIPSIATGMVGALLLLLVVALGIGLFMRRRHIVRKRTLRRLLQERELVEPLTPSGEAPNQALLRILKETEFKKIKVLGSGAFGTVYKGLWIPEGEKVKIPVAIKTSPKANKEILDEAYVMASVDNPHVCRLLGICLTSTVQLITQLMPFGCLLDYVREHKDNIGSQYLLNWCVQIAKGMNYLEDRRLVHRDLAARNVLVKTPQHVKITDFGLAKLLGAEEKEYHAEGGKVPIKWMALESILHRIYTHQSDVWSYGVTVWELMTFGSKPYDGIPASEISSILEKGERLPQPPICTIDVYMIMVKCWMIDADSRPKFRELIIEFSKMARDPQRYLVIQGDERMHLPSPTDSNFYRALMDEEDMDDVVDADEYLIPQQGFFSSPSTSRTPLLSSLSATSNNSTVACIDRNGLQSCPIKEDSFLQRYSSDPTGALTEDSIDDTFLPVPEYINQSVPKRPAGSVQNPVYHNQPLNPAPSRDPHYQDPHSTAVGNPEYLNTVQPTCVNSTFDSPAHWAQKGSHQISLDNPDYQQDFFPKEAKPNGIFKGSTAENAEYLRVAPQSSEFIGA

[11] = system: PC9RK; assay: Cell proliferation assay (CellTiter-Glo), PC9RK; settings: value marked (PC9RK), read-out: 3T3 del_T790M IC50, (PC9RK)
Description: as §1, with “After three to five days of compound treatment, CellTiter-Glo® Reagent (#G7573, Promega, Madison, Wis.) was prepared in one of two ways. If thawing a frozen aliquot of CellTiter-Glo® Reagent, the aliquot was thawed and equilibrated to room temperature prior to use while keeping it protected from light. Alternatively, new bottles of CellTiter-Glo® Buffer and CellTiter-Glo® Substrate were thawed and equilibrated to room temperature prior to use. CellTiter-Glo® Buffer (100 mL) was transferred into the amber bottle containing CellTiter-Glo® Substrate to reconstitute the lyophilized enzyme/substrate mixture, forming the CellTiter-Glo® Reagent. The reconstituted reagent was mixed by gently inverting the contents to obtain a homogeneous solution, and went into solution easily in less than one minute. Any unused reconstituted CellTiter-Glo® Reagent was immediately aliquoted and frozen at −20° C., protected from light. Cell plates were equilibrated at room temperature for approximately 30 minutes. An equivolume amount of CellTiter-Glo® Reagent (100 μL) was added to each well. Plates were mixed for two minutes on an orbital shaker to induce cell lysis, and then allowed to incubate at room temperature for 10 minutes to stabilize the luminescent signal.” left out

Compound	IC50 [1]	IC50 [2]	IC50 [3]	IC50 [4]	IC50 [5]	IC50 [6]	IC50 [7]	IC50 [8]	IC50 [9]	IC50 [10]	IC50 [11]
C=CC(=O)N1C[C@H](COc2nc(Nc3ccn(C)n3)nc3[nH]cc(Cl)c23)[C@@H](OC)C1 [Example 111]	14 nM	352 nM	> 10 µM	886 nM	100 to 1000 nM	100 to 1000 nM	> 1000 nM				
C=CC(=O)N1C[C@H](COc2nc(Nc3cnn(CCO)c3)nc3[nH]cc(Cl)c23)[C@@H](OC)C1 [Example 101]		1010 nM	> 10 µM		100 to 1000 nM	> 1000 nM	> 1000 nM	48 nM		6540 nM	100 to 1000 nM
C=CC(=O)N[C@H]1C[C@@H](Oc2nc(Nc3cnn(C)c3)nc3[nH]cc(-c4cccnc4)c23)C1 [Example 109]	153 nM	271 nM	5.54 µM	32 nM	100 to 1000 nM	10 to 100 nM	100 to 1000 nM			29 nM	100 to 1000 nM

Continued, values first:

IC50 [1]	IC50 [2]	IC50 [3]	IC50 [4]	IC50 [5]	IC50 [6]	IC50 [7]	IC50 [8]	IC50 [9]	IC50 [10]	IC50 [11]	Compound
		> 10 µM		10 to 100 nM	100 to 1000 nM	100 to 1000 nM	39 nM	667 nM	1200 nM	100 to 1000 nM	C=CC(=O)N[C@]1(C)C[C@H](Oc2nc(Nc3cnn(C)c3)nc3[nH]cc(Cl)c23)C1 [Example 114]
21 nM	297 nM	4.96 µM	709 nM	100 to 1000 nM	100 to 1000 nM	100 to 1000 nM				100 to 1000 nM	C=CC(=O)N1C[C@H](COc2nc(Nc3cnn([C@H]4CCOC4)c3)nc3[nH]cc(Cl)c23)[C@@H](OC)C1 [Example 102]
